Test results: patent US4263302A, “Quinolinecarboxylic acid substituted penicillins and pharmaceutical compositions containing the same” (Mitsui Toatsu Chemicals, Incorporated, priority 1978, dated 1981)
Values after ≈ are worked out from the molar mass of the structure shown. Like-named read-outs stand apart in the source and are kept apart here.

Assays:
[1] = tested on: Proteus vulgaris (OX-19); assay: antibacterial activity, minimum growth inhibitory concentration method (MIC method); type: cell-based; details: HIA medium, 37° C., 18 hours
Method: (§1) The antibacterial activity was tested by the minimum growth inhibitory concentration method (MIC method).
(§2) A commercially available heart infusion agar medium (to be abbreviated HIA medium) was used as an assay medium, and a commercially available trypto-soy bouillon medium (to be abbreviated TSB) was used as a medium for the growth of test bacterial strains.
(§3) The test compound was diluted with the melted HIA medium to 100 μg/ml as a maximum concentration, and then serially diluted doubly. The dilutions were poured into sterilized Petri dishes respectively and allowed to cool and solidify to prepare plates containing the test compound.
(§4) As a control, carbenicillin sodium (CB-PC) was used.
(§5) The test strain was cultivated in the TBS medium at 37° C. for 18 hours, and the culture broth was diluted with a freshly prepared TBS medium to 50 to 500 times, and one platinum loopful of the dilution was inoculated in each of the plates containing the test compound. The plate was incubated at 37° C. for 18 hours. The state of growth of the strain on the plate was observed, and the minimum growth inhibitory concentration (MIC) of the compound was determined.

[2] = tested on: Staphylococcus aureus (FDA 209P); assay: as above; type: cell-based; details: FDA209P, read-out: Minimum growth inhibitory concentration (MIC)
Method: as §1, §2, §3, §4, §5

[3] = tested on: Serratia marcescens (S-33); assay: as above; type: cell-based; details: HIA medium, 37° C., 18 hours
Method: as §1, §2, §3, §4, §5

[4] = tested on: Staphylococcus aureus (Y-8); assay: as above; type: cell-based; details: HIA medium, 37° C., 18 hours
Method: as §1, §2, §3, §4, §5

[5] = tested on: Pseudomonas aeruginosa (IFO-3901); assay: as above; type: cell-based; details: IFO3901, HIA medium, 37° C., 18 hours
Method: as §1, §2, §3, §4, §5

[6] = tested on: Klebsiella pneumoniae (ATCC 10031); assay: as above; type: cell-based; details: ATCC10031, HIA medium, 37° C., 18 hours
Method: as §1, §2, §3, §4, §5

[7] = tested on: Salmonellaenteritidis (KB-21); assay: as above; type: cell-based; details: read-out: Minimum growth inhibitory concentration (MIC)
Method: as §1, §2, §3, §4, §5

[8] = tested on: Enterobacter aerogenes (IFO-3320); assay: as above; type: cell-based; details: Klebsiella aerogenes, read-out: Minimum growth inhibitory concentration (MIC)
Method: as §1, §2, §3, §4, §5

[9] = tested on: Escherichia coli (K-12); assay: as above; type: cell-based; details: HIA medium, 37° C., 18 hours
Method: as §1, §2, §3, §4, §5

[10] = tested on: Shigella flexneri (K-A); assay: as above; type: cell-based; details: HIA medium, 37° C., 18 hours
Method: as §1, §2, §3, §4, §5

[11] = tested on: Pseudomonas aeruginosa (395); assay: as above; type: cell-based; details: HIA medium, 37° C., 18 hours
Method: as §1, §2, §3, §4, §5

[12] = tested on: Pseudomonas aeruginosa; details: in words, background literature; cited from earlier work
[13] = Salmonellaenteritidis (KB-21), HIA medium, 37° C., 18 hours
[14] = IFO3320, Enterobacter aerogenes (IFO-3320), HIA medium, 37° C., 18 hours

| SMILES | MIC [1] | MIC ([2]; Staphylococcus aureus, 18 h) | MIC [3] | MIC [4] | MIC [5] | MIC [6] | MIC ([7]; 18 h) | MIC ([8]; IFO3320, 18 h) | MIC [9] | MIC [10] | MIC [11] | activity on Pseudomonas aeruginosa [12] | effect on Pseudomonas aeruginosa-induced infections of difficultly-curable nature [12] | MIC [7, 13] | MIC [8, 14] | MIC ([2]; Staphylococcus aureus (FDA 209P), HIA medium, 37° C., 18 hours) |
| --- | --- | --- | --- | --- | --- | --- | --- | --- | --- | --- | --- | --- | --- | --- | --- | --- |
| CC1(C)S[C@@H]2[C@H](NC(=O)C(C(=O)O)c3ccccc3)C(=O)N2[C@H]1C(=O)O (stereo partly drawn) [CB--PC, disodium-α-carboxybenzyl penicillin, reference compound] | 3.13 µg/mL | 1.56 µg/mL | 3.13 µg/mL | 6.25 µg/mL | 100 µg/mL | > 100 µg/mL | 1.56 µg/mL | 1.56 µg/mL | 6.25 µg/mL | 1.56 µg/mL | 25 µg/mL | low activity | ineffective | – | – | – |
| CC1(C)CC(=O)c2c([nH]cc(C(=O)N[C@@H](C(=O)N[C@@H]3C(=O)N4[C@@H]3SC(C)(C)[C@@H]4C(=O)O)c3ccccc3)c2=O)C1 [Synthesis Example 1, 6-[D-(-)-α-(7,7-dimethyl-4,5-dioxo-1,4,5,6,7,8-hexahydroquinoline-3-carboxamido)phenylacetamido]-penicillanic acid] | 1.56 µg/mL (≈ 2.75 µM) | 1.56 µg/mL (≈ 2.75 µM) | 3.13 µg/mL (≈ 5.52 µM) | 6.25 µg/mL (≈ 11 µM) | 6.25 µg/mL (≈ 11 µM) | 12.5 µg/mL (≈ 22.1 µM) | – | – | 0.78 µg/mL (≈ 1.38 µM) | 0.39 µg/mL (≈ 0.688 µM) | 1.56 µg/mL (≈ 2.75 µM) | – | – | 0.39 µg/mL (≈ 0.688 µM) | 0.78 µg/mL (≈ 1.38 µM) | – |
| CCn1cc(C(=O)N[C@@H](C(=O)N[C@@H]2C(=O)N3[C@@H]2SC(C)(C)[C@@H]3C(=O)O)c2ccccc2)c(=O)c2c1CCCC2=O [Synthesis Example 2, 6-[D-(-)-α-(1-ethyl-4,5-dioxo-1,4,5,6,7,8-hexahydroquinoline-3-carboxamodo)phenylacetamido]-penicillanic acid] | 3.13 µg/mL (≈ 5.52 µM) | – | 3.13 µg/mL (≈ 5.52 µM) | 6.25 µg/mL (≈ 11 µM) | 6.25 µg/mL (≈ 11 µM) | 25 µg/mL (≈ 44.1 µM) | – | – | 3.13 µg/mL (≈ 5.52 µM) | 0.78 µg/mL (≈ 1.38 µM) | 3.13 µg/mL (≈ 5.52 µM) | – | – | 0.78 µg/mL (≈ 1.38 µM) | 1.56 µg/mL (≈ 2.75 µM) | 1.56 µg/mL (≈ 2.75 µM) |
